Measured values from ChEMBL document CHEMBL3132742, “Hydrogen sulfide donors in research and drug development” (2014).

Legend:
HT-29 [1] = assay: Anticancer activity against human HT-29 cells xenografted in mouse model assessed as suppression of cancer cell growth relative to control; format: functional
HT-29 [2] = assay: Anticancer activity against human HT-29 cells xenografted in mouse model assessed as reduction in tumor volume relative to control; format: functional

`O=C(CCCO[N+](=O)[O-])Oc1ccccc1C(=O)Oc1ccc(-c2cc(=S)ss2)cc1` was tested, and the “fold change (FC)” value (HT-29 [1]) was 9000 and the “inhibition (INH)” value (HT-29 [2]) was 85%.
